Reference: patent publication US20260000658A1, “METHODS FOR THE TREATMENT OF PROLIFERATIVE GLOMERULONEPHRITIS” (INSTITUT NATIONAL DE LA SANTÉ ET DE LA RECHERCHE MÉDICALE, priority 2022, published 2026)

Experiments:
Type in all cases: in vivo, mouse
Tg26^HE mice = Tg26^HE mice (collapsing glomerulopathy model), vehicle or alpelisib for 8 weeks; conditions: 8 weeks treatment
Protocol: (§1) For the uninephrectomy experiments, the right kidneys were removed under anesthesia. For the medical treatment of mice, 50 mg kg −1 alpelisib (MedChem Tronica) in 1% carboxymethylcellulose (Sigma Aldrich)+0.5% Tween (Sigma Aldrich) or vehicle (1% carboxymethylcellulose+0.5% Tween) was administered by oral gavage daily for the indicated periods of time. Blood and urines were obtained at the indicated times. At euthanasia, blood, urines, kidneys were harvested. In some experiments, spleens, hearts, and bone marrow (BM) in femurs and tibias were harvested as well. Tissues were fixed in 4% paraformaldehyde and paraffin embedded for immunohistochemical analysis, snap-frozen in Optimal Cutting Temperature (OCT), or stored at −80° C. for mRNA or protein analysis.
(§2) Mouse blood counts were analyzed using a hematology analyzer (ProCyte Dx; IDEXX Laboratories). Mouse serum creatinine, blood urea nitrogen, urinary albumin, and urinary creatinine were evaluated using an AU5800 (Beckman Coulter) autoanalyzer. Serum anti-dsDNA measurement was performed according to the manufacturer's instruction using mouse anti-dsDNA ELISA kit (LBIS). The absorbance was measured using Ininite M Nano (TECAN).
(§3) 4-μm kidney sections were stained with periodic acid-Schiff (PAS), Masson's Trichrome (MT), Periodic acid metenamine silver (PAM) or Hematoxylin and Eosin (HE) staining for histological analysis. The degree of glomerular lesions was evaluated using the following scoring system: 0=no lesion, 1=affecting up to 25% of the glomerulus, 2=affecting 25-50% of the glomerulus, 3=affecting 50-75% of the glomerulus, and 4=affecting 75-100%. At least 50 glomeruli per sample were measured for each analysis. An indirect immunoperoxidase method was used for immunohistochemistry. Briefly, after deparaffinization, antigen retrieval was performed with citrate buffer (pH6) or Tris-EDTA buffer (pH9 or pH6) using microwave or high temperature (95° C.). Endogenous peroxidase activity was quenched using 3% hydrogen peroxide; nonspecific protein binding was blocked using 2.5% normal horse serum (Vector Laboratories), and endogenous biotin activity was quenched using the Avidin/Biotin Blocking Kit (Vector Laboratories). When using mouse primary antibodies on mouse tissue, Klear mouse blocking reagent (Diagomics) was used to block endogenous mouse immunoglobulins. After blocking, the tissue sections were incubated with the primary antibodies overnight at 4° C. The following primary antibodies were used: rabbit anti-Ki67 antibody (SP6; Thermo Fisher Scientific), rabbit anti-P-S6RP antibody (D68F8; Cell Signaling Technology), mouse anti-P-AKT (Ser473) antibody (587F11; Cell Signaling Technology), rabbit anti-P-AKT (Thr308) antibody (C31E5E; Cell Signaling Technology), mouse anti-S6RP antibody (54E2; Cell Signaling Technology), chicken anti-GFP antibody (Abcam), guinea pig anti-Nephrin antibody (GP-N2; Progen), rabbit anti-Podocin antibody (P0372; Sigma Aldrich), mouse anti-WTI antibody (6F-H2; DAKO). The corresponding secondary antibodies including anti-mouse IgG, anti-rabbit IgG, anti-guinea pig IgG, biotinylated anti-rabbit IgG (Vector Laboratories), and biotinylated anti-mouse IgG (Vector Laboratories) were applied. For Avidin/Biotin detection, an R.T.U. Vectastain Kit (Vector Laboratories) or streptavidin (Thermo Fisher Scientific) was used. The immunoreactive antigens sites were detected with hydrogen peroxide and diaminobenzidine. For frozen immunofluorescent staining, frozen tissue sections (4 μm) were briefly air dried and fixed in 50% methanol/50% acetone. The sections were then blocked with 2.5% normal horse serum and incubated with primary antibodies: guinea pig anti-Nephrin antibody (GP-N2; Progen) overnight at 4° C. The sections were then incubated at room temperature for 40 min with secondary antibodies: fluorescein isothiocyanate-conjugated (FITC) anti-mouse IgG (Sigma Aldrich), FITC anti-mouse IgM (BD Biosciences), or FITC anti-mouse C3 antibody (abcam). […]

[1] = system: uninephrectomized Tg26^HE mice; assay: Uninephrectomized Tg26^HE mice (accelerated collapsing glomerulopathy model), vehicle or alpelisib for 4 weeks
Protocol: Scale bar P-S6RP, and P-AKTSer473 mean intensity quantification (n=5-6 mice per group). P. Serum creatinine level, and Blood urea nitrogen level of Tg26WT and Tg26HE mice at the time of sacrifice (4 weeks following uninephrectomy and treated either with vehicle or alpelisib) (n=8-9 mice per group)
as §1, §2
as §3, with “acetone.” for “acetone. The sections were then blocked with 2.5% normal horse serum and incubated with primary antibodies: guinea pig anti-Nephrin antibody (GP-N2; Progen) overnight at 4° C. The sections were then incubated at room temperature for 40 min with secondary antibodies: fluorescein isothiocyanate-conjugated (FITC) anti-mouse IgG (Sigma Aldrich), FITC anti-mouse IgM (BD Biosciences), or FITC anti-mouse C3 antibody (abcam).”

MRL-lpr mice = assay: MRL-lpr mice, 12 weeks old, treated for 4 weeks
Protocol: as §1, §2, §3

## Cc1nc(NC(=O)N2CCC[C@H]2C(N)=O)sc1-c1ccnc(C(C)(C)C(F)(F)F)c1 [alpelisib, Alpelisib]
Tg26^HE mice; 4 weeks old, vs vehicle
  albuminuria: lower albuminuria
Tg26^HE mice
  AKT/mTOR pathway: profound AKT/mTOR pathway inhibition
  kidney function: not significantly improved
Tg26^HE mice; vs vehicle
  expression of podocyte differentiation markers: higher expression of podocyte differentiation markers
  fibrotic markers Col1a and Col3a: reduced expression in fibrotic markers
  glomerular lesions: less severe glomerular lesions
  inflammatory marker Tnfa: lower expression
  kidney volume: reduction in kidney volume
  tubular injury markers Lcn2 and KIM1: lower expression of tubular injury markers
[1]; 4 weeks treatment
  AKT/mTOR pathway in glomeruli: profoundly blunted
  expression of Col1a, Col3a and Lcn2: reduced expression
  expression of podocyte markers: maintained expression of podocyte markers
  glomerular lesions, kidney histology: fewer glomerular lesions
  ratio kidney/body weight: improved
[1]; 4 weeks treatment, vs vehicle
  albuminuria: significantly improved
  kidney function (serum creatinine, blood urea nitrogen): significantly improved
[1]; accelerated mouse model of collapsing glomerulopathy
  kidney lesions (title of FIG. 3): improves kidney lesions
[1]; uninephrectomy at 4 weeks old, 4 weeks treatment
  surfaces of the kidneys at sacrifice: regular and smooth
MRL-lpr mice; 12 weeks old females, 4 consecutive weeks
  proteinuria: proteinuria reduction
MRL-lpr mice; 12 weeks old, 4 weeks
  Cola1 and Cola3 mRNA expression: improved
  dsDNA antibodies: significantly reduced
  glomerular AKT/mTOR pathway: inhibited
  glomerular lesion score: improved
MRL-lpr mice; vs vehicle
  expression of podocyte differentiation markers: increased
